Measurements published in patent publication US6337341B1 (priority 1996, dated 2002).

| melting point [°C] | SMILES |
| --- | --- |
| 65 | CSc1nnc(-c2snnc2C)o1 |
| 118 | Cc1nnsc1CS(=O)(=O)c1ccccc1 |
| 124 | COC(=O)c1csc(-c2snnc2-c2ccccc2)n1 |
| 182 | Cc1nnsc1-c1nnc(S)o1 [Compound No. 102, 5-(5-mercapto-1,3,4-oxadiazol-2-yl)-4-methyl-1,2,3-thiadiazole] |
| > 250 | Cc1nnsc1CN.Cl [Compound No. 220, 5-aminomethyl-4-methyl-1,2,3-thiadiazole hydrochloride] |
| 70 | COC(=O)/C=C/c1snnc1C [Compound No. 338, methyl (E)-3-(4-methyl-1,2,3-thiadiazol-5-yl)-2-propenate] |
| 80 to 85 | COC(=O)/C=C\c1snnc1C [Compound No. 341, methyl (Z)-3-(4-methyl-1,2,3-thiadiazol-5-yl)-2-propenate] |
